One assay relates to RelB or p52/NF-κB2. The assay can be described thus: p52 and RelB DNA binding activity in PBMCs from ESRD patients on hemodialysis. It counts as in vivo, human. To be noted: PBMCs from paricalcitol-treated ESRD patients; RelB or p52 DNA binding activities. As for the experimental part: (§1) Intracellular protein and mRNA levels were measured in PBMCs from ESRD patients on hemodialysis. Inclusion criteria were as follows: age >45 years; male sex; informed consent; and absence of active inflammatory, infectious, or malignant diseases at the initiation or during the study. This study was approved by the IIS-Fundación Jiménez Diaz Ethics Committee. Patients were enrolled after providing written informed consent. PBMCs were separated from whole blood samples (30 ml into EDTA tubes) by a density gradient centrifugation method using Ficoll density gradient centrifugation. In total, 50x10^6 of PBMCs were obtained from 30 ml of whole blood and 6x10^6 PBMCs were used to isolate protein, RNA and nuclear/cytosolic protein levels using the NE-PER Reagent (Pierce) following the manufacturer's instructions.
Nuclear and cytoplasmic fractions were separated from renal tissues using the NE-PER Reagent (Pierce) following the manufacturer's instructions. In renal nuclear extracts, NF-κB2 and RelB DNA binding activity was measured by its binding to an oligonucleotide containing the NF-κB consensus site using a TransAM NF-κB Family kit (Active Motif) with an antibody that only recognizes active NF-κB2 p52 and RelB.

For a further assay, the system named is CIAP1-TRAF3 complexes. The assay can be described thus: TRAF3 immunoprecipitation (ubiquitin-Lys-48, CIAP1) in PBMCs from ESRD patients. It counts as in vivo, human. As for the experimental part:
as §1
(§2) Cells growing in tissue culture dish plates, were lysed in 300-500 µl Triton-NP-40 lysis buffer [50 mmol/L Tris-HCl pH 8, 150 mmol/L NaCl, 1 mmol/L phenylmethylsulphonylfluoride, 1% NP-40/IGEPAL, and a phosphatase-inhibitor cocktail (Set II, Calbiochem)], scraped off the dish and incubated 1 hour to 4°C with shaking. Cell lysates were precleared by incubating with 10 µl protein A-agarose bead slurries (0.5 mL agarose/2 mL phosphate-buffered saline) for 30 min at 4°C, and then centrifuged three times for 5 minutes at 2500 rpm, to wash supernatants. […]

For another assay, the system named is CIAP1-TRAF3 complex. The assay is described as follows: TRAF3 immunoprecipitation (ubiquitin-Lys-48, CIAP1) in TWEAK-stimulated HK2 cells. The assay is classed as cell-based, Human. To be noted: TWEAK 100 ng/ml, paricalcitol 15 umol/L. As for the experimental part:
Human kidney proximal tubule epithelial cells (HK2 cell line, ATCC CRL-2190) were grown in RPMI 1640 with 10% fetal bovine serum (FBS), 1% glutamine, 100 U/ml penicillin, 100 µg/ml streptomycin, 5 µg/ml insulin-transferrin-selenite and 36 ng/ml hydrocortisone in 5% CO2 at 37° C. When cells reached 60 to 70% confluence, they were serum-depleted for 24 hours before the experiment.
Cells were stimulated with 100ng/ml recombinant human soluble TWEAK (Millipore) or p-200 µg/ml cresyl-sulfate (Raymond Vanholder and Griet Glorieux, University of Gent, Belgium). Concentrations of TWEAK and p-cresyl-sulfate were based on previously published dose-response experiments (Poveda et al. 2014; Sanz et al. 2008). […] DMSO, used as a solvent in some cases, had no effect on cell viability or on gene expression levels.
as §2

Each structure is given as a SMILES string.

The record followed here is patent EP3748362A1, “IN VITRO METHOD FOR DETECTING RENAL DISEASE” (Fundacion Instituto De Investigacion Sanitaria Fundacion …, priority 2019, dated 2020).

In the case of `C[C@H](/C=C/[C@H](C)C(C)(C)O)[C@H]1CC[C@H]2/C(=C/C=C3C[C@@H](O)C[C@H](O)C3)CCC[C@]12C` [paricalcitol], in the assay on RelB or p52/NF-κB2, the NF-κB2 pathway activation result was “inhibited”. In addition, the “TRAF3 ubiquitination and CIAP1-TRAF3 interaction” value with CIAP1-TRAF3 complexes (PBMCs of paricalcitol-treated ESRD patients, TRAF3 immunoprecipitation) is on record as “significantly lowering to values in the range of healthy controls”. The CIAP-1 levels entry in the assay with CIAP1-TRAF3 complexes (whole protein extracts of PBMCs, paricalcitol-treated ESRD patients) is “close to control values”. Moreover, the “TRAF3 ubiquitination and CIAP1-TRAF3 complex formation” value in the assay with CIAP1-TRAF3 complex is “prevented”.
